Assay results reported in patent US4150135A, “Substituted 4a-phenyl-N-phenylalkyl-cis-decahydroisoquinolines” (priority 1977, dated 1979).
Structures can show the parent of a compound that is named as a salt.

test system: mice (phenylquinone-induced stretching or writhing syndrome); assay: standard phenylquinone writhing test (PQW), oral analgesia in mice; type: in vivo, female white mice; details: Mus musculus, po, read-out: PQW ED50
Method: A standard procedure for detecting and comparing the analgesic activity of compounds in this series for which there is good correlation with human efficacy is the standard phenylquinone writhing test (PQW) modified from Siegmund, et al., Proc. Soc. Exp. Biol. Med. 95, 729 (1957). A test compound suspended in 1% methylcellulose was given orally to fasted (17-21 hours) female white mice, 5-20 animals per dose in a double blind test. Aqueous (0.01% phenyl-p-benzoquinone) phenylquinone was injected intraperitoneally at 23 or 30 minutes later using 0.20 ml per mouse. […] The effective analgesic dose for 50% of the mice (ED 50) was calculated by the moving average method of Weil, Biometrics 8, 249 (1952).

SMILES | ED50 [mg/kg]
CN1CC[C@]23c4c5ccc(O)c4O[C@H]2[C@@H](O)C=C[C@H]3[C@H]1C5 [Morphine H2 SO4, reference compound] | 1.6

same assay, conditions: Mus musculus, po; mice; phenylquinone i.p.; effective analgesic dose for 50% of the mice (Table II); read-out: PQW ED50

SMILES | ED50 [mg/kg]
CN1CC[C@]2(c3ccc(F)cc3)CCCC[C@@H]2C1 (relative stereo) [CH3 p-F, N-methyl-4a-(p-fluorophenyl)-cis-decahydroisoquinoline] | 26
Oc1cccc(C23CCCCC2CN(CC2CC2)CC3)c1 (stereo not drawn) | 20
COc1cccc(C23CCCCC2CN(CCc2ccc(C)cc2)CC3)c1 (stereo not drawn) | 11
Cc1ccc(CCN2CCC3(c4cccc(O)c4)CCCCC3C2)cc1 (stereo not drawn) | 9.7
CC(C)=CCN1CCC2(C)c3cc(O)ccc3CC1C2C.Cl (stereo not drawn) [Pentazocine HCl, reference compound] | 57
CC(=O)Oc1cccc(C23CCCCC2CN(CCc2cccs2)CC3)c1 (stereo not drawn) | 27
Oc1cccc(C23CCCCC2CN(CCc2ccc(Cl)cc2)CC3)c1 (stereo not drawn) | 28
C=CCN1CC[C@]2(c3cccc(O)c3)CCCC[C@@H]2C1 (relative stereo) [CH2CHCH2 m-OH, N-Allyl-4a-(m-hydroxyphenyl)-cis-decahydroisoquinoline] | 43
Oc1cccc(C23CCCCC2CN(CCc2ccccc2)CC3)c1 (stereo not drawn) | 21
COc1cccc(C23CCCCC2CN(CCc2cccs2)CC3)c1 (stereo not drawn) | 27
Oc1cccc(C23CCCCC2CN(CCc2cccs2)CC3)c1 (stereo not drawn) | 24
COc1cccc(C23CCCCC2CN(CC2CCC2)CC3)c1 (stereo not drawn) | 18.5
COc1cccc(C23CCCCC2CN(CCc2ccc(N(C)C)cc2)CC3)c1 (stereo not drawn) | 15.1
COc1cccc(C23CCCCC2CN(CC2CC2)CC3)c1 (stereo not drawn) | 14
COc1ccc2c3c1O[C@H]1[C@@H](O)C=C[C@H]4[C@@H](C2)N(C)CC[C@@]341 [Codeine H3 PO4, reference compound] | 8
CCCCCN1CCC2(c3cccc(OC)c3)CCCCC2C1 (stereo not drawn) [C5 H11 m-OCH3] | 20
Oc1ccc2c3c1O[C@H]1[C@@H](O)CC[C@@]4(O)[C@@H](C2)N(CC2CCC2)CC[C@]314 [Nalbuphine HCl, reference compound] | 8.4
CN1CCC2(c3cccc(O)c3)CCCCC2C1 (stereo not drawn) [CH3 m-OH] | 2.9
CC(C)=CCN1CC[C@]2(c3cccc(O)c3)CCCC[C@@H]2C1 (relative stereo) [CH2CHC(CH3)2 m-OH, N-(3,3-Dimethylallyl)-4a-(m-hydroxyphenyl)-cis-decahydroisoquinoline] | 40
COc1cccc(C23CCCCC2CN(CCc2ccco2)CC3)c1 (stereo not drawn) | 25
COc1cccc(C23CCCCC2CN(CCc2ccc(F)cc2)CC3)c1 (stereo not drawn) | 33
CC(=O)Oc1ccccc1C(=O)O [Aspirin, reference compound] | 109
COc1cccc(C23CCCCC2CN(CCc2ccccc2)CC3)c1 (stereo not drawn) | 14.5
COc1cccc(C23CCCCC2CN(CCc2ccc(Cl)cc2)CC3)c1 (stereo not drawn) | 16
Oc1cccc(C23CCCCC2CN(CC2CCC2)CC3)c1 (stereo not drawn) | 20

same assay, conditions: Mus musculus, po; mouse (Table III, additional compounds); read-out: Mouse ED50 Analgesia (PQW)-Oral

SMILES | ED50 [mg/kg]
COc1cccc(C23CCN(CCc4ccc(C)cc4)CC2CCC(C)C3)c1 (stereo not drawn) [Example 20-G, N-(p-Tolylethyl)-4a-m-methoxyphenyl-6β-methyl-cis-decahydroisoquinoline] | 28
CC1CCC2CN(CC3CCC3)CCC2(c2cccc(O)c2)C1 (stereo not drawn) [Example 22-C, N-Cyclobutylmethyl-4a-m-hydroxyphenyl-6β-methyl-cis-decahydroisoquinoline] | 54
CC1CCC2CN(CCc3ccccc3)CCC2(c2cccc(O)c2)C1 (stereo not drawn) [Example 27-C, N-Phenethyl-4a-m-hydroxyphenyl-6β-methyl-cis-decahydroisoquinoline] | 10.8
COc1cccc(C23CCN(Cc4ccco4)CC2CCC(C)C3)c1 (stereo not drawn) [Example 28, N-(2-Furylmethyl)-4a-m-methoxyphenyl-6β-methyl-cis-decahydroisoquinoline] | 61
COc1cccc(C23CCN(C)CC2CCC(C)C3)c1 (stereo not drawn) [Example 23, N-Methyl-4a-m-methoxyphenyl-6β-methyl-cis-decahydroisoquinoline] | 3.5

same assay, conditions: oral; mouse (Table III, additional compounds)

SMILES | Mouse ED50 Analgesia (PQW)-Oral [mg/kg]
COc1cccc(C23CCN(CCc4ccc(C)cc4)CC2CCC(C)C3)c1 (stereo not drawn) [Example 20-G, N-(p-Tolylethyl)-4a-m-methoxyphenyl-6β-methyl-cis-decahydroisoquinoline] | 22

test system: not given; assay: not given; details: J. Am. Chem. Soc. 72, 712 (1950); cited from earlier work

SMILES | analgesic activity
CN1CC[C@]2(c3ccccc3)CCCC[C@@H]2C1 (relative stereo) [N-Methyl-4a-phenyl-cis-decahydroisoquinoline] | low analgesic activity
